Measured values from publication PMC11284788, “NN1213 – A Potent, Long-Acting, and Selective Analog of Human Amylin” (Journal of Medicinal Chemistry, 2024).
Numbered stars: 1 amine (or outer) side, 2 acyl side, 3 side chain; on linkers, the order of the positions; unused ones are H or OH. Bridge positions count the residues as written; N and C are the ends. Side chains are listed from the residue outwards. Peptide text beside a SMILES is read from it. * marks the point of attachment. C20 diacid = O=C(O)CCCCCCCCCCCCCCCCCCC(=O)*; γGlu = O=C(O)[C@H](CCC(=O)[*:2])N[*:1]

How the values were obtained:
[1] = molecular target: T1, hCTR (Homo sapiens, UniProt P30988); test: cAMP-responsive element luciferase reporter assay, human CTR; format: cell-based; settings: luciferase (human receptor assay); for hCTR pEC50: Tables S12 and S14
T1 sequence (P30988 25-474): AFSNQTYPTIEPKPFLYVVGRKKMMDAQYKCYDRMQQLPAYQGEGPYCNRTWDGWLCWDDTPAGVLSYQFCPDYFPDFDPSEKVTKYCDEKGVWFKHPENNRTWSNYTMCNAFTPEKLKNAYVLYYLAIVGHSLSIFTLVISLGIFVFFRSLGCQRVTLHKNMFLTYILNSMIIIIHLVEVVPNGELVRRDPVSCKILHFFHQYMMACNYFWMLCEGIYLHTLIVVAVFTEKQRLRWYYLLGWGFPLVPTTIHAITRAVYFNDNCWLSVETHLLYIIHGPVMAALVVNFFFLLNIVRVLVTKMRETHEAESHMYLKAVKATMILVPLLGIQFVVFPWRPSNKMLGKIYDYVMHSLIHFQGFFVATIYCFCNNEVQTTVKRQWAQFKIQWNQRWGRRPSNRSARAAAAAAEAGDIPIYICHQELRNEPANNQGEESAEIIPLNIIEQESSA

[2] = molecular target: T1, hCTR; test: scintillation proximity binding assay, hCTR membranes; parameters: expressed in transfected cells; host or cells: BHK tk-ts 13, transient (FuGENE 6); membranes for the SPA, whole cells for the species-specific assays; settings: for hCTR pIC50: SPA binding assay, Tables S13 and S15
Protocol: (§1) The apparent binding affinities were determined using a scintillation proximity assay with beads from PerkinElmer and cell membranes containing the AMY3R or CTRs. […] Membranes were harvested and membranes were prepared and kept at −80 °C until use. The assay was performed in a 384-well Optiplate (PerkinElmer). Membranes were mixed with scintillation proximity assay beads in a 1:1 ratio. […] Samples were analyzed on a TopCounter (Packard). The IC50 values were calculated using GraphPad Prism. See Supporting Information S7: SAR Screening Assay Methods (Binding Assays (Human and Rat)) for more information.
(§2) Binding Assays (Human and Rat). Brief descriptions of the methods used to determine binding affinities for SAR analysis are described below. Curves and IC50 values were plotted and calculated in GraphPad Prism using nonlinear regression (one site binding competition analysis), with pIC50 values […]
(§3) values were used to calculate the binding affinity ratios in order to express the selectivity of compounds for the AMY3R versus the CTR.
(§4) CTR Binding Assay. The binding assay was performed using scintillation proximity assay (SPA) beads (RPNQ0001) from PerkinElmer and cell membranes containing either the hCTR or rCTR. BHK […]
(§5) Membranes were prepared in the following way: the cells were rinsed with PBS and incubated with Versene for approximately 5 min before harvesting. The cells were flushed with PBS and the cell-suspension was centrifuged for 5 min at 1000 rpm. Cells were homogenized (Ultra Turrax) in a buffer […]
(§6) containing 20 mM Na-HEPES and 0.1 mM EDTA (pH 7.4, buffer 2). The resulting pellet was re-suspended in buffer 2 and protein concentration was measured (BCA protein assay, Pierce). The homogenate was kept cold during the whole procedure. The membranes were stored at –80 °C until […]
(§7) The binding assay was performed in a 384-well Optiplate (PerkinElmer) in a total volume of 40 μL.
(§8) Membranes were mixed with SPA beads in a 1:1 ratio. […]
(§9) mg/well. Test compounds were dissolved in DMSO and further diluted in assay buffer (50 mM HEPES, pH 7.4, 1 mM CaCl2, 5 mM MgCl2, 0.1% ovalbumin, and 0.02% Tween-20).
(§10) Calcitonin (NEX422 PerkinElmer) was dissolved in assay buffer and added to the Optiplate at a final […]
(§11) prior to centrifugation (1500 rpm, 10 min). Samples were analyzed on TopCounter (Packard).

[3] = molecular target: T2, rCTR (Rattus norvegicus, UniProt P32214); test: scintillation proximity binding assay, rCTR membranes; settings: SPA binding assay, Tables S13 and S15
T2 construct: expressed in transfected cells; host or cells: BHK tk-ts 13, transient (FuGENE 6)
T2 sequence (P32214 25-479 isoform P32214-2 limits assumed): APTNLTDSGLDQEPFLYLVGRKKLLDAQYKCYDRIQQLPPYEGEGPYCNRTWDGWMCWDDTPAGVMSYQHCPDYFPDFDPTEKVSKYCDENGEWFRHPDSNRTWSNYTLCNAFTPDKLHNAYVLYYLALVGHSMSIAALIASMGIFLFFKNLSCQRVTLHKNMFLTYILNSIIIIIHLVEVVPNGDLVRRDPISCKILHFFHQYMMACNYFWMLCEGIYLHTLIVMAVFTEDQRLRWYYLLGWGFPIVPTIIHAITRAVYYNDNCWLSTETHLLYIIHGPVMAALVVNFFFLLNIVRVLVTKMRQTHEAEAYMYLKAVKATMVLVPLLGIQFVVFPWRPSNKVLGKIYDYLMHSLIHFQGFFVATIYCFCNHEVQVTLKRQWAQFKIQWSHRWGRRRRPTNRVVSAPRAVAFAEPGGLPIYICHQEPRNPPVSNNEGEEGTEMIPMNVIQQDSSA
Protocol: as §1, §2, §3, §4, §5, §6, §7, §8, §9, §10, §11

[4] = molecular target: T3, rat AMY3R (Rattus norvegicus, UniProt P32214+Q9JJ73); test: cAMP FlashPlate assay, rat AMY3R; format: cell-based; settings: ratio of cAMP EC50 values
T3 construct: expressed in transfected cells; host or cells: BHK tk-ts 13, transient co-transfection (FuGENE 6)
T3 sequence (P32214 25-479 isoform P32214-2 limits assumed): T2 sequence (P32214 25-479 isoform P32214-2 limits assumed)
T3 sequence (Q9JJ73 23-147 partner): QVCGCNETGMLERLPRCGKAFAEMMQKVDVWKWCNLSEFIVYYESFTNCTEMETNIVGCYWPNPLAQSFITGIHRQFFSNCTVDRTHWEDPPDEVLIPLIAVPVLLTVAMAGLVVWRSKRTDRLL

CC[C@H](C)[C@H](NC(=O)[C@H](C)NC(=O)CNC(=O)[C@H](Cc1ccccc1)NC(=O)[C@H](CC(N)=O)NC(=O)[C@@H]1CCCN1C(=O)[C@H](CO)NC(=O)[C@H](CO)NC(=O)[C@H](Cc1c[nH]cn1)NC(=O)[C@H](CCCNC(=N)N)NC(=O)[C@H](CC(C)C)NC(=O)[C@H](Cc1ccccc1)NC(=O)[C@H](CCC(=O)O)NC(=O)[C@H](C)NC(=O)[C@H](CC(C)C)NC(=O)[C@H](CCCNC(=N)N)NC(=O)[C@H](CCC(N)=O)NC(=O)[C@@H](NC(=O)[C@H](C)NC(=O)[C@@H]1CSSC[C@H](NC(=O)[C@@H](N)CCCCNC(=O)CC[C@H](NC(=O)CCCCCCCCCCCCCCCCCCC(=O)O)C(=O)O)C(=O)N[C@@H](CC(N)=O)C(=O)N[C@@H]([C@@H](C)O)C(=O)N[C@@H](C)C(=O)N[C@@H]([C@@H](C)O)C(=O)N1)[C@@H](C)O)C(=O)N1CCC[C@H]1C(=O)N[C@@H](CO)C(=O)N[C@@H](CO)C(=O)N[C@H](C(=O)N[C@@H](CC(N)=O)C(=O)N[C@H](C(=O)NCC(=O)N[C@@H](CO)C(=O)N[C@@H](CCCNC(=N)N)C(=O)N[C@H](C(=O)N[C@@H](Cc1ccc(O)cc1)C(N)=O)[C@@H](C)O)C(C)C)[C@@H](C)O [Peptide 20] (H-K([γGlu-C20 diacid])CNTATCATQRLAEFLRHSSPNFGAIPSSTNVGSRTY-NH2; disulfide 2-7)
hCTR pEC50 [1]: 8.28 | EC50 ([1]; BHK cells stably expressing hCTR and CRE-luciferase, 3 h, 37 °C, 10% FBS, read-out: hCTR EC50): 0.0052 µM

CC(C)C[C@H](NC(=O)[C@H](CCCNC(=N)N)NC(=O)[C@H](CCC(N)=O)NC(=O)[C@@H](NC(=O)[C@H](C)NC(=O)[C@@H]1CSSC[C@H](NC(=O)[C@@H](N)CCCCNC(=O)CC[C@H](NC(=O)CC[C@H](NC(=O)CCCCCCCCCCCCCCCCCCC(=O)O)C(=O)O)C(=O)O)C(=O)N[C@@H](CC(N)=O)C(=O)N[C@@H]([C@@H](C)O)C(=O)N[C@@H](C)C(=O)N[C@@H]([C@@H](C)O)C(=O)N1)[C@@H](C)O)C(=O)N[C@@H](C)C(=O)N[C@@H](CC(=O)O)C(=O)N[C@@H](Cc1ccccc1)C(=O)N[C@@H](CC(C)C)C(=O)N[C@@H](CCCNC(=N)N)C(=O)N[C@@H](Cc1c[nH]cn1)C(=O)N[C@@H](CO)C(=O)N[C@@H](CO)C(=O)N[C@@H](CC(N)=O)C(=O)N1CCC[C@H]1C(=O)N[C@@H](Cc1ccccc1)C(=O)NCC(=O)N[C@@H](C)C(=O)N1CCC[C@H]1C(=O)N[C@@H](CC(C)C)C(=O)N[C@@H](CO)C(=O)N[C@@H](CO)C(=O)N[C@H](C(=O)N[C@@H](CC(N)=O)C(=O)N[C@H](C(=O)NCC(=O)N[C@@H](CO)C(=O)N[C@@H](CC(=O)O)C(=O)N[C@H](C(=O)N[C@@H](Cc1ccc(O)cc1)C(N)=O)[C@@H](C)O)C(C)C)[C@@H](C)O [Peptide 7] (H-K([γGlu-γGlu-C20 diacid])CNTATCATQRLADFLRHSSNPFGAPLSSTNVGSDTY-NH2; disulfide 2-7)
hCTR pEC50 [1]: 8.86

CC[C@H](C)[C@H](NC(=O)[C@H](C)NC(=O)CNC(=O)[C@H](Cc1ccccc1)NC(=O)[C@H](CC(N)=O)NC(=O)[C@@H]1CCCN1C(=O)[C@H](CO)NC(=O)[C@H](CO)NC(=O)[C@H](Cc1c[nH]cn1)NC(=O)[C@H](CCCNC(=N)N)NC(=O)[C@H](CC(C)C)NC(=O)[C@H](Cc1ccccc1)NC(=O)[C@H](CC(N)=O)NC(=O)[C@H](C)NC(=O)[C@H](CC(C)C)NC(=O)[C@H](CCCNC(=N)N)NC(=O)[C@H](CCC(N)=O)NC(=O)[C@@H](NC(=O)[C@H](C)NC(=O)[C@@H]1CSSC[C@H](NC(=O)[C@H](CCCCN)NC(=O)CC[C@H](NC(=O)CCCCCCCCCCCCCCCCCCC(=O)O)C(=O)O)C(=O)N[C@@H](CC(N)=O)C(=O)N[C@@H]([C@@H](C)O)C(=O)N[C@@H](C)C(=O)N[C@@H]([C@@H](C)O)C(=O)N1)[C@@H](C)O)C(=O)N1CCC[C@H]1C(=O)N[C@@H](CO)C(=O)N[C@@H](CO)C(=O)N[C@H](C(=O)N[C@@H](CC(N)=O)C(=O)N[C@H](C(=O)NCC(=O)N[C@@H](CCCNC(=N)N)C(=O)N[C@@H](CC(N)=O)C(=O)N[C@H](C(=O)N[C@@H](Cc1ccc(O)cc1)C(N)=O)[C@@H](C)O)C(C)C)[C@@H](C)O [Peptide 16]
hCTR pIC50 [2]: 7.71 | hCTR pEC50 [1]: 8.60 | rCTR pIC50 [3]: 7.02

CC[C@H](C)[C@H](NC(=O)[C@H](C)NC(=O)CNC(=O)[C@H](Cc1ccccc1)NC(=O)[C@H](CC(N)=O)NC(=O)[C@@H]1CCCN1C(=O)[C@H](CO)NC(=O)[C@H](CO)NC(=O)[C@H](Cc1c[nH]cn1)NC(=O)[C@H](CCCNC(=N)N)NC(=O)[C@H](CC(C)C)NC(=O)[C@H](Cc1ccccc1)NC(=O)[C@H](CC(=O)O)NC(=O)[C@H](C)NC(=O)[C@H](CC(C)C)NC(=O)[C@H](CCCNC(=N)N)NC(=O)[C@H](CCC(N)=O)NC(=O)[C@@H](NC(=O)[C@H](C)NC(=O)[C@@H]1CSSC[C@H](NC(=O)[C@@H](N)CCCCNC(=O)CC[C@H](NC(=O)CC[C@H](NC(=O)CCCCCCCCCCCCCCCCCCC(=O)O)C(=O)O)C(=O)O)C(=O)N[C@@H](CC(N)=O)C(=O)N[C@@H]([C@@H](C)O)C(=O)N[C@@H](C)C(=O)N[C@@H]([C@@H](C)O)C(=O)N1)[C@@H](C)O)C(=O)N1CCC[C@H]1C(=O)N[C@@H](CO)C(=O)N[C@@H](CO)C(=O)N[C@H](C(=O)N[C@@H](CC(N)=O)C(=O)N[C@H](C(=O)NCC(=O)N[C@@H](CO)C(=O)N[C@@H](CC(=O)O)C(=O)N[C@H](C(=O)N[C@@H](Cc1ccc(O)cc1)C(N)=O)[C@@H](C)O)C(C)C)[C@@H](C)O [Peptide 6] (H-K([γGlu-γGlu-C20 diacid])CNTATCATQRLADFLRHSSPNFGAIPSSTNVGSDTY-NH2; disulfide 2-7)
hCTR pIC50 [2]: 7.71 | IC50 ([2]; SPA, BHK cell membranes, 125I-Calcitonin 75 pM, 120 min 25 °C, read-out: hCTR IC50): 0.0195 µM | ratio rCTR/rAMY3R [4]: 1338
